# Target: T1, human HSP70 (Homo sapiens, UniProt P0DMV8)
# T1 construct: gene HSPA1A
# Test: citrate synthase thermoprotection (chaperone) assay, […] nm DTNB
# Type: biochemical
# Conditions: 0.5 µM porcine heart citrate synthase, 1.8 µM HSP, 43 °C, 50 mM HEPES pH 8.0; activity read at 25 °C; inhibitor concentration not stated
# T1 sequence (P0DMV8 2-641): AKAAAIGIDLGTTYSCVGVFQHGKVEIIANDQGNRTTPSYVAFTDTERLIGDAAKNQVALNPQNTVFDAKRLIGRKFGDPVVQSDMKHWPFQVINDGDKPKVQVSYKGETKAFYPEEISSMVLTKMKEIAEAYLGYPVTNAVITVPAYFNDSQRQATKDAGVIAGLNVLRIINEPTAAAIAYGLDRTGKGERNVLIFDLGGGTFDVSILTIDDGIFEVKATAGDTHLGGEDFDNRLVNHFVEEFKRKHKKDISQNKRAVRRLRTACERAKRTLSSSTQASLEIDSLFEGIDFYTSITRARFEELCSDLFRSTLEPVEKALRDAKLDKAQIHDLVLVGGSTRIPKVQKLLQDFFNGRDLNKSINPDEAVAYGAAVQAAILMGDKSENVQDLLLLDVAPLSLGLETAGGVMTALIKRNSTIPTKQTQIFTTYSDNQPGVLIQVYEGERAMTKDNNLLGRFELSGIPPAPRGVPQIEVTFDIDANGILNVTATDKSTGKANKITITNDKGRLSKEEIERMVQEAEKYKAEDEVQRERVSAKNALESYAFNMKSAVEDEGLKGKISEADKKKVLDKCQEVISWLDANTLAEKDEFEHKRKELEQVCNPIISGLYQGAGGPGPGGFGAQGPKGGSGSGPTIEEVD
compound,measurement,value
"NS(=O)(=O)C#Cc1ccccc1 [Pif, pifithrin]","citrate synthase thermoprotection (chaperone) assay, 412 nm DTNB","Similarly, Pif also inhibits thermos-protection by HSP70"
